Drawing on US9688689B2, “Compounds and compositions for inducing chondrogenesis” (Novartis AG, priority 2014, dated 2017), this text covers IC50 for 55 compounds.

What is called IC50 is the concentration needed to halve the response being measured.

This assay has as its system Primary articular chondrocytes from normal bovine knees. As to the kind of experiment: NO Release Assay in Bovine Chondrocytes (inhibition of cytokine induced NO release, Greiss reagent). In kind it is cell-based. The settings on record: Bos taurus, Chondrocyte; 20 ng/ml TNFα and 10 ng/ml human oncostatin M, 48 hours; read-out: NO Inh. IC50. On the procedure: The compounds of the present invention were evaluated in two functional assays to assess their chondrogenesis activities (Type II Collagen Expression) and chondrocyte protective activities (NO release assay).
The assay was described in Johnson, K., et al., (2012) Science 336, 717-721. Chondrocytes release NO during OA pathogenesis. This assay measures the inhibition of nitric oxide release by the treated compound (an indicator of chondro-protection) Primary articular chondrocytes from normal bovine knees (Animal Technologies, Tyler, Tex.) were isolated after dissection and collagenase digestion (Worthington Biochemical) of the tibial plateau and femoral condyle articular cartilage. The cells were initially plated at 80-90% confluency after isolation. Primary chondrocytes were cultured in high-glucose Dulbecco's modified Eagle's medium (DMEM) supplemented with 10% fetal bovine serum (FBS), 1% L-glutamine, 100 units/ml of penicillin, and 50 μg/ml of streptomycin (Life Technologies, Carlsbad, Calif.) and maintained at 37° C. in the presence of 5% CO2 for 7 days prior to initiation of each experiment. During the 7-day culture period, the cells adhered and established a chondrocyte-like appearance that was maintained throughout the experimental period. Functional studies on chondrocytes were performed in high-glucose DMEM with no FBS unless indicated otherwise.
After one week of culture, 8500 cells were plated per well in Greiner 384 well white clear bottom plates in growth media. Following 24 hours of culture, the media was removed and replaced with serum free DMEM containing 20 ng/ml TNFα and 10 ng/ml human oncostatin M (inflammatory mediators). […] 20 μl of the supernatant was mixed with 20 μl of the Greiss reagent (Promega # G2930) and quantitated at 540 nm. The Greiss reagent part A (1% Sulfanilamide in 5% phosphoric acid) was mixed at a 1:1 ration with Greiss reagent part B (0.1% N-1-napthylethylenediamine dihydrochloride in water) immediately prior to added to the culture supernatant.

As to `O=C(Nc1ccc(Cl)c(Cl)c1)[C@@H]1[C@@H](c2ccncc2)[C@@H]2CC[C@H]1O2` (single isomer, unassigned) [Compound 71], the IC50 is greater than 29 µM.
On to `O=C(Nc1ccc(Cl)c(Cl)c1)[C@H]1[C@H](c2ccncc2)[C@H]2CC[C@@H]1O2` (single isomer, unassigned) [Compound 103], for which the half-maximal inhibitory concentration (IC50) was greater than 29 µM.
In the case of `Nc1cc([C@@H]2[C@@H](C(=O)Nc3ccc(Cl)c(Cl)c3)[C@H]3CC[C@@H]2O3)ccn1` (single isomer, unassigned) [Compound 107], the IC50 was greater than 33 µM.
Next, `Nc1cc([C@@H]2[C@H](C(=O)Nc3ccc(Cl)c(Cl)c3)[C@H]3CC[C@@H]2O3)ccn1` (single isomer, unassigned) [Compound 115]: 26 µM; `CCOC(=O)c1ccccc1NC(=O)[C@H]1[C@@H](c2nc(-c3ccc(Cl)cc3)no2)[C@@H]2CC[C@H]1O2` [Compound 2]: greater than 30 µM; `Nc1cc([C@@H]2[C@@H](C(=O)Nc3ccc(Cl)c(Cl)c3)[C@H]3CC[C@@H]2O3)ccn1` [Compound 5]: 16 µM.
For the compound `O=C(Nc1ccc(Cl)c(Cl)c1)[C@@H]1[C@H](c2ccncc2)[C@H]2CC[C@@H]1O2` [Compound 8], the IC50 was greater than 33 µM.
Consider `COC(=O)c1cc(-c2ccccc2)ccc1NC(=O)[C@H]1[C@@H](c2nc(-c3ccc(Cl)cc3)no2)[C@@H]2CC[C@H]1O2` [Compound 9], for which the IC50 is greater than 11.1 µM.
Consider `Nc1cc([C@H]2[C@H](C(=O)Nc3ccc(Cl)c(Cl)c3)[C@@H]3CC[C@H]2O3)ccn1` [Compound 10], for which the IC50 stood at 22 µM.
`O=C(Nc1ccc(Cl)c(Cl)c1)[C@H]1[C@@H](c2ccncc2)[C@@H]2CC[C@H]1O2` [Compound 11]: the IC50 is greater than 33 µM.
Consider `CCOC(=O)c1ccc(NC(=O)[C@H]2[C@@H](c3nc(-c4ccc(Cl)cc4)no3)[C@@H]3CC[C@H]2O3)cc1` [Compound 17], for which the IC50 is greater than 11.1 µM.
Next, `O=C(Nc1ccc(Cl)c(F)c1)[C@@H]1[C@H](c2ccncc2)[C@@H]2CC[C@H]1O2` [Compound 18]: greater than 33 µM; `N#Cc1cc([C@H]2[C@@H](C(=O)Nc3ccc(-c4ccccc4F)c(F)c3)[C@H]3CC[C@@H]2O3)ccn1` [Compound 20]: greater than 33 µM.
For the compound `COC(=O)c1cc(Cl)ccc1NC(=O)[C@H]1[C@H](c2ccncc2)[C@@H]2CC[C@H]1O2` [Compound 24], the IC50 is greater than 33 µM.
Regarding `O=C(Nc1ccc(-c2ccccc2Cl)c(F)c1)[C@H]1[C@H](c2ccncc2)[C@@H]2CC[C@H]1O2` [Compound 26], the IC50 was greater than 3.4 µM.
As for `O=C(Nc1ccc(-c2ccccc2F)c(Cl)c1)[C@@H]1C(c2cccc(C(F)(F)F)n2)[C@@H]2CC[C@H]1O2` (stereo partly shown) [Compound 27], the IC50 is greater than 33 µM.
Consider `O=C(Nc1ccc(-c2ccccc2Cl)c(F)c1)C1=C(c2ccnn2C2CCOCC2)[C@@H]2CCC1O2` [Compound 31], for which the 50% inhibitory concentration (IC50) was greater than 33 µM.
Next, `Cc1cc(C2=C(C(=O)Nc3ccc(-c4ccccc4F)c(F)c3)C3CC[C@@H]2O3)ccn1` [Compound 32]: greater than 27 µM; `O=C(Nc1ccc(Cl)c(F)c1)[C@H]1[C@H](c2ccncc2)[C@@H]2CC[C@H]1O2` [Compound 33]: greater than 33 µM.
For `O=C(Nc1cnc(-c2ccccc2)nc1)C1=C(c2ccncc2)C2CCC1O2` (stereo not shown) [Compound 38], the IC50 was greater than 33 µM.
With `O=C(Nc1ccc(-c2ccccc2)c(Cl)c1)[C@H]1[C@H](c2ccncc2)[C@@H]2CC[C@H]1O2` [Compound 39], the IC50 was greater than 33 µM.
The same measure for `O=C(Nc1cccc(Cl)c1F)[C@H]1[C@H](c2ccncc2)[C@@H]2CC[C@H]1O2` [Compound 41]: greater than 33 µM; for `CCOC(=O)c1ccc(NC(=O)C2=C(c3cccc(C(F)(F)F)n3)[C@@H]3CCC2O3)cc1F` [Compound 43]: greater than 33 µM; for `O=C(Nc1ccc(-c2ccccc2F)c(F)c1)C1=C(c2ccnc(Cl)c2)[C@@H]2CCC1O2` [Compound 44]: 28 µM.
On to `O=C(Nc1ccc(-c2ccccc2)c(Cl)c1)C1=C(c2ccn[nH]2)[C@@H]2CC[C@H]1O2` [Compound 47], for which the half-maximal inhibitory concentration (IC50) was 18 µM.
`Nc1cc(C2=C(C(=O)Nc3ccc(-c4ccccc4F)c(F)c3)C3CC[C@@H]2O3)ccn1` [Compound 49]: the IC50 was greater than 33 µM.
On to `O=C(Nc1ccc(-c2ccccc2)c(Cl)c1)C1=C(c2ccnn2C2CCOCC2)[C@@H]2CCC1O2` [Compound 50], for which the IC50 amounted to 14 µM.
In the case of `O=C(Nc1cccc(OC(F)(F)F)c1F)C1=C(c2ccncc2)[C@@H]2CCC1O2` [Compound 51], the IC50 worked out at 26 µM.
The same measure for `O=C(Nc1ccc(-c2ccccc2F)c(F)c1)[C@H]1[C@H](c2ccncc2)[C@@H]2CC[C@H]1O2` [Compound 52]: greater than 33 µM; for `COC(=O)c1cc(Cl)ccc1NC(=O)C1=C(c2ccncc2)[C@@H]2CCC1O2` [Compound 54]: greater than 33 µM; for `N#Cc1cc(C2=C(C(=O)Nc3ccc(-c4ccccc4F)c(F)c3)C3CC[C@@H]2O3)ccn1` [Compound 56]: greater than 33 µM.
As for `Cc1cc(NC(=O)C2=C(c3ccncc3)[C@@H]3CCC2O3)nn1-c1ccccc1` [Compound 61], the half-inhibitory concentration (IC50) is greater than 33 µM.
As for `O=C(Nc1ccc(-c2ccccc2F)c(F)c1)C1=C(c2ccnn2C2CCOCC2)C2CCC1O2` (stereo not shown) [Compound 62], the IC50 was 15 µM.
Take `Nc1cc([C@H]2[C@@H](C(=O)Nc3ccc(-c4ccccc4F)c(F)c3)[C@H]3CC[C@@H]2O3)ccn1` [Compound 64]: the IC50 is greater than 33 µM.
As for `Cn1cc2cc([C@H]3[C@@H](C(=O)Nc4ccc(-c5ccccc5F)c(F)c4)[C@H]4CC[C@@H]3O4)ccc2n1` [Compound 65], the IC50 was greater than 33 µM.
With `CCOC(=O)c1ccc(NC(=O)C2=C(c3ccncc3)C3CCC2O3)cc1F` (stereo not shown) [Compound 67], the IC50 was greater than 33 µM.
For the compound `Cc1cc([C@@H]2[C@@H](C(=O)Nc3ccc(Cl)c(Cl)c3)[C@H]3CC[C@@H]2O3)ccn1` [Compound 69], the IC50 was found to be 21 µM.
Turning to `O=C(Nc1ccc(-c2ccc(F)cc2F)c(F)c1)[C@H]1[C@H](c2ccncc2)[C@@H]2CC[C@H]1O2` [Compound 70], the IC50 was greater than 33 µM.
The same measure for `O=C(Nc1ccc(-c2ccccc2)cc1)[C@@H]1[C@H](c2ccncc2)[C@@H]2CC[C@H]1O2` [Compound 74]: greater than 33 µM.
`O=C(Nc1ccc(-c2ccccc2Cl)c(F)c1)[C@@H]1[C@@H](c2ccncc2)[C@@H]2CC[C@H]1O2` [Compound 76]: the IC50 is greater than 33 µM.
On to `CN(C)c1ncc([C@H]2[C@@H](C(=O)Nc3ccc(-c4ccccc4F)c(F)c3)[C@H]3CC[C@@H]2O3)cn1` [Compound 78], for which the concentration for half-maximal inhibition (IC50) came to 0.24 µM.
With `O=C(Nc1ccc(-c2ccccc2F)c(F)c1)[C@@H]1[C@@H](c2ccccn2)[C@@H]2CC[C@H]1O2` [Compound 80], the 50% inhibitory concentration (IC50) was greater than 17 µM.
As for `O=C(Nc1ccc(-c2ccccc2)c(Cl)c1)[C@@H]1[C@@H](c2cccc(C(F)(F)F)n2)[C@@H]2CC[C@H]1O2` [Compound 83], the IC50 was greater than 33 µM.
As to `O=C(Nc1ccc(-c2ccccc2F)c(F)c1)[C@@H]1[C@@H](c2cccc(C(F)(F)F)n2)[C@@H]2CC[C@H]1O2` [Compound 86], the IC50 is greater than 33 µM.
As for `O=C(Nc1ccc(-c2ccccc2F)c(F)c1)[C@@H]1[C@H](c2cc(Cl)nc(Cl)c2)[C@@H]2CC[C@H]1O2` [Compound 87], the IC50 was greater than 33 µM.
For `Cn1nc(C(F)(F)F)cc1[C@@H]1[C@@H](C(=O)Nc2ccc(Cl)c(Cl)c2)[C@H]2CC[C@@H]1O2` [Compound 89], the IC50 was greater than 33 µM.
Consider `O=C(Nc1ccc(Cl)c(Cl)c1)[C@@H]1[C@@H](c2cccc(C(F)(F)F)n2)[C@@H]2CC[C@H]1O2` [Compound 92], for which the IC50 is greater than 33 µM.
As to `C[C@]12CC[C@](C)(O1)[C@@H](c1ccncc1)[C@H]2C(=O)Nc1ccc(-c2ccccc2F)c(F)c1` [Compound 93], the IC50 was greater than 33 µM.
Next, `O=C(Nc1ccc(-c2ccccc2F)c(F)c1)[C@@H]1[C@H](c2ccnc(F)c2Cl)[C@@H]2CC[C@H]1O2` [Compound 95]: 0.18 µM.
In the case of `O=C(Nc1ccc(-c2ccccc2F)c(F)c1)C1=C(c2ccnc(F)c2Cl)[C@@H]2CCC1O2` [Compound 97], the IC50 stood at 22.6 µM.
For the compound `O=C(Nc1ccc(-c2ccccc2)c(Cl)c1)[C@@H]1[C@@H](c2ccncc2)[C@@H]2CC[C@H]1O2` [Compound 98], the concentration for half-maximal inhibition (IC50) is greater than 33 µM.
With `O=C(Nc1ccc(-c2ccccc2)c(Cl)c1)[C@H]1[C@@H](c2ccncc2)[C@@H]2CC[C@H]1O2` [Compound 104], the IC50 was greater than 33 µM.
On to `O=C(Nc1ccc(-c2ccccc2F)c(F)c1)C1=C(c2ccncc2F)[C@@H]2CCC1O2` [Compound 109], for which the IC50 was greater than 33 µM.
As for `O=C(Nc1ccc(-c2ccc(F)cc2F)c(F)c1)[C@@H]1[C@@H](c2ccncc2)[C@@H]2CC[C@H]1O2` [Compound 111], the half-inhibitory concentration (IC50) was greater than 33 µM.
`O=C(Nc1ccc(-c2ccccc2F)c(F)c1)C1=C(c2cc(Cl)nc(Cl)c2)[C@@H]2CC[C@H]1O2` [Compound 116]: the half-inhibitory concentration (IC50) was found to be 0.12 µM.
